For orientation: IC50 means the concentration that gives 50% inhibition. What is called EC50 is the concentration giving half of the maximal effect. The term AC50 denotes the concentration giving half of the maximal activity seen.

Calls of active or inactive are those of the source.

One experiment addresses Prothrombin (Homo sapiens, UniProt P00734). As to the kind of experiment: Thrombin 1536 HTS Dose Response Confirmation. [Related pubchem assays: 1046 (Thrombin 1536 HTS; hits were confirmed in this assay)]. It counts as functional.
Experiment [1] in a line: Counterscreen for IDE inhibitors: Luminescence-based cell-based high throughput dose response assay to identify compounds that are cytotoxic to HEK cells. [Related pubchem assays: 434962 (Primary screen (IDE inhibitors in singlicate)), 449730 (Counterscreen (Cytotoxicity in triplicate)), 435028 (Confirmation (IDE inhibitors in triplicate)) …. Type of experiment: functional. The note with it: HEK293.

The next experiment deals with T1, Insulin-degrading enzyme (Homo sapiens, UniProt P14735).
T1 sequence (P14735 whole entry): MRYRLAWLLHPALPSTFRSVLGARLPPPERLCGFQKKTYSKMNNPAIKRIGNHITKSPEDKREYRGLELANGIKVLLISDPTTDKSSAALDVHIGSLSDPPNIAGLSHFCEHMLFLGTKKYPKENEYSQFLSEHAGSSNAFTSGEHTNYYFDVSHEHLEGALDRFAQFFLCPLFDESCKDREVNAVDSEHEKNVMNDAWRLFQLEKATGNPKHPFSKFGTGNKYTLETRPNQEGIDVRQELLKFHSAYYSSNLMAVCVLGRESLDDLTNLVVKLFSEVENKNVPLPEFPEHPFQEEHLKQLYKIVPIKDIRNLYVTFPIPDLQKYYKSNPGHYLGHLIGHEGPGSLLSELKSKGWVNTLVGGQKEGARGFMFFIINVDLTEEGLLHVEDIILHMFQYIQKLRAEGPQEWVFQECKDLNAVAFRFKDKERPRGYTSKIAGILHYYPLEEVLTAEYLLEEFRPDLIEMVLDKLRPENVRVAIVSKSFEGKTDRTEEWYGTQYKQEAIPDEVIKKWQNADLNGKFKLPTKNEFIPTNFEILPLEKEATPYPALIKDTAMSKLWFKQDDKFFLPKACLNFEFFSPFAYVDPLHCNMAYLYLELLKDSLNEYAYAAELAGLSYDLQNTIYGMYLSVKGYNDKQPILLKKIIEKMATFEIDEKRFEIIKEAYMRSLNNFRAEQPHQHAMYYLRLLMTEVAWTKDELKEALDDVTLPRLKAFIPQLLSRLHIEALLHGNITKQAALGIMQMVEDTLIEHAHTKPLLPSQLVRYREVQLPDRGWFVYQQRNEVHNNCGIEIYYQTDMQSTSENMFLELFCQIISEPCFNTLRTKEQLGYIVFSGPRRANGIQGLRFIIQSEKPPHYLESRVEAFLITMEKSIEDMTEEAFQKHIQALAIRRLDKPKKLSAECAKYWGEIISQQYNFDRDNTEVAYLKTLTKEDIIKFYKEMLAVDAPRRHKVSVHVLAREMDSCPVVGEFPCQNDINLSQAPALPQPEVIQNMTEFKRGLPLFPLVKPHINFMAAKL
As to the kind of experiment: Dose Response: Fluorescence polarization-based cell-based high throughput dose response assay for inhibitors of insulin-degrading enzyme (IDE). [Related pubchem assays: 434962 (Primary screen (IDE inhibitors in singlicate)), 449730 (Counterscreen (Cytotoxicity in triplicate)), 435028 (Confirmation (IDE inhibitors in triplicate)), 434984 (Summary …. Type of experiment: functional.

The nature of experiment [2]: cytotoxicity in HPDE-C7 cells, cell-based, fluorescence, HTS (AID 430). Type of experiment: functional. The note with it: Homo sapiens.
The nature of experiment [3]: cytotoxicity in KRAS-transformed pancreatic duct cells, primary screen, cell-based, fluorescence, HTS (AID 431).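 Also: cell line used: HPDE-C7K.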 Type of experiment: functional. To be noted: Homo sapiens.
In experiment [4] the target is T2, Voltage-gated N-type calcium channel alpha-1B subunit/Amyloid beta A4 precursor protein-binding family A member 1 (Homo sapiens, UniProt Q00975+Q02410). As to the kind of experiment: disruptors of Mint-PDZ/N-type channel peptide interaction – biochemical, HTRF, SAR follow-up (AID 2489). It counts as functional. On the technique in general: TR-FRET usually uses a lanthanide donor and a delayed reading to cut background.

In experiment [5] the target is T2, Voltage-gated N-type calcium channel alpha-1B subunit/Amyloid beta A4 precursor protein-binding family A member 1. As to the kind of experiment: disruptors of Mint-PDZ/N-type channel peptide interaction – biochemical, HTRF, set 2, SAR follow-up (AID 434980). Type of experiment: functional.
A further experiment concerns the target T3, Streptokinase A (Streptococcus pyogenes serotype M1, UniProt P10520).
T3 sequence (P10520 whole entry): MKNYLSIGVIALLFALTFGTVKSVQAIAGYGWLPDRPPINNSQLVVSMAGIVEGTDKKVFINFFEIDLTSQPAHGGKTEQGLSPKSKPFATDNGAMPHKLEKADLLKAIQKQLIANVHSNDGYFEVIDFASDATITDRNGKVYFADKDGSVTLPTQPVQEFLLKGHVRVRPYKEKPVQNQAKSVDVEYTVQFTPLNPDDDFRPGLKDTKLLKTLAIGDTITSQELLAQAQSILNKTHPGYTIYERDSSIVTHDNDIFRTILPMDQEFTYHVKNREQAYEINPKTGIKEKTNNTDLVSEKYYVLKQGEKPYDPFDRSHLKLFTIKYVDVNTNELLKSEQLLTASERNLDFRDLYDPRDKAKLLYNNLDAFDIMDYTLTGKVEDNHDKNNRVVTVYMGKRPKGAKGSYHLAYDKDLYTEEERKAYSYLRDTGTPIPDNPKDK
As to the kind of experiment: Absorbance Microorganism-Based Dose Response Follow up to Identify Inhibitors of Streptokinase Expression. [Related pubchem assays: 1677 (Project Summary), 1915, 1914, 1902 (Retest at Dose), 1900 (Counter Screen), 1662 (Primary HTS)]. It counts as functional, Streptococcus pyogenes M1 GAS.

The next experiment concerns Streptococcus. As to the kind of experiment: Streptococcus pyogenes growth inhibition counter-screen, dose response, counter-screen for streptokinase expression inhibitor project, luminescence, BacTiter-Glo, strain UMAA2166 (AID 2477). It counts as functional, organism-based. (Counterscreens check selectivity or assay interference.)
Experiment [6] is described as follows: cytotoxicity toward NIH3T3 fibroblasts, dose response, counter-screen, cell-based, ATP luminescence, mouse fibroblasts (AID 2010).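 Also: cells exposed to compound for about 90 hours before reading.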 Type of experiment: functional.
Experiment [7] can be described thus: C. albicans growth with fluconazole, confirmation, fluorescence, retest (AID 2467). It counts as functional, cell-based.
A short description of experiment [8]: NIH-3T3 fibroblast cytotoxicity, dose response, cytotoxicity control, cell-based, fluorescence, Alamar Blue, secondary assay (AID 2327).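 Also: NIH-3T3 mouse fibroblasts cultured with fluconazole at 8 µg/mL.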 It counts as functional.
The subject of another experiment is INS1. Briefly: beta cell apoptosis inhibitors, cytokine rescue, dose response, luminescence, retest (AID 449756).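 Also: cell death triggered by IL-1 beta plus TNF-alpha plus IFN-gamma mixture; protective hits raise ATP signal compared with cytokine alone wells.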 Type of experiment: functional, cell-based. The note with it: Rattus norvegicus.
Experiment [9] has as its target T4, Mannose-6-phosphate isomerase (Homo sapiens, UniProt P34949).
T4 sequence (P34949 whole entry): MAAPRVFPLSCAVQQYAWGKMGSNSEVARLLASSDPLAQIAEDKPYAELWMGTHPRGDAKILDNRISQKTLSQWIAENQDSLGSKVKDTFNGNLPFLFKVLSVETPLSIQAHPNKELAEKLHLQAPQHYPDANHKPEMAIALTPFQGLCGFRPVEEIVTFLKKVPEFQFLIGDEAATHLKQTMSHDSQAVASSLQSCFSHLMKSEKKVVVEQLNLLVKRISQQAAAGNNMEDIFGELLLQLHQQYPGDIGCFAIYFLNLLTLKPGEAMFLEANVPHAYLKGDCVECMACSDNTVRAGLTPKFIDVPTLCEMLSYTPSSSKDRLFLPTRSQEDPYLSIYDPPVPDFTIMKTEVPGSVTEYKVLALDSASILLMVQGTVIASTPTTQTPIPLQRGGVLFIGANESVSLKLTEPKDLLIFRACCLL
Briefly: human PMI inhibitors, high substrate, primary screen, biochemical, fluorescence intensity, high mannose 6-phosphate (AID 1220).

Experiment [10] is described as follows: inhibitors of intracellular T. cruzi replication, confirmation, NIH3T3 host cells, beta-gal luminescence (AID 2044).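 Also: intracellular parasites grown in NIH/3T3 mouse fibroblasts as host cells; luminescent beta-galactosidase reporter signal from transgenic T. cruzi replicating inside host cells; inhibitors lower the luminescence signal.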 Type of experiment: functional, cell-based.
In the next experiment the target is Nonstructural protein 1 (Influenza A virus, UniProt Q194T2). Type of experiment: functional, Influenza A virus (A/California/07/2009(H1N1)).
Nonstructural protein 1, sequence (Q194T2 whole entry): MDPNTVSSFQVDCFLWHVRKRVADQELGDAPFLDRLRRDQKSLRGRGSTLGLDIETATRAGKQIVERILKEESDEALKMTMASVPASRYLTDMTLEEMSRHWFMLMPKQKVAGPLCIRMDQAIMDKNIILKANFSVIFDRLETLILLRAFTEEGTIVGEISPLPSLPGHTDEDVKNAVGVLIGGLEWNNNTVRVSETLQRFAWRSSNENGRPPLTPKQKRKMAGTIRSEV

T2 sequence (Q00975 whole entry): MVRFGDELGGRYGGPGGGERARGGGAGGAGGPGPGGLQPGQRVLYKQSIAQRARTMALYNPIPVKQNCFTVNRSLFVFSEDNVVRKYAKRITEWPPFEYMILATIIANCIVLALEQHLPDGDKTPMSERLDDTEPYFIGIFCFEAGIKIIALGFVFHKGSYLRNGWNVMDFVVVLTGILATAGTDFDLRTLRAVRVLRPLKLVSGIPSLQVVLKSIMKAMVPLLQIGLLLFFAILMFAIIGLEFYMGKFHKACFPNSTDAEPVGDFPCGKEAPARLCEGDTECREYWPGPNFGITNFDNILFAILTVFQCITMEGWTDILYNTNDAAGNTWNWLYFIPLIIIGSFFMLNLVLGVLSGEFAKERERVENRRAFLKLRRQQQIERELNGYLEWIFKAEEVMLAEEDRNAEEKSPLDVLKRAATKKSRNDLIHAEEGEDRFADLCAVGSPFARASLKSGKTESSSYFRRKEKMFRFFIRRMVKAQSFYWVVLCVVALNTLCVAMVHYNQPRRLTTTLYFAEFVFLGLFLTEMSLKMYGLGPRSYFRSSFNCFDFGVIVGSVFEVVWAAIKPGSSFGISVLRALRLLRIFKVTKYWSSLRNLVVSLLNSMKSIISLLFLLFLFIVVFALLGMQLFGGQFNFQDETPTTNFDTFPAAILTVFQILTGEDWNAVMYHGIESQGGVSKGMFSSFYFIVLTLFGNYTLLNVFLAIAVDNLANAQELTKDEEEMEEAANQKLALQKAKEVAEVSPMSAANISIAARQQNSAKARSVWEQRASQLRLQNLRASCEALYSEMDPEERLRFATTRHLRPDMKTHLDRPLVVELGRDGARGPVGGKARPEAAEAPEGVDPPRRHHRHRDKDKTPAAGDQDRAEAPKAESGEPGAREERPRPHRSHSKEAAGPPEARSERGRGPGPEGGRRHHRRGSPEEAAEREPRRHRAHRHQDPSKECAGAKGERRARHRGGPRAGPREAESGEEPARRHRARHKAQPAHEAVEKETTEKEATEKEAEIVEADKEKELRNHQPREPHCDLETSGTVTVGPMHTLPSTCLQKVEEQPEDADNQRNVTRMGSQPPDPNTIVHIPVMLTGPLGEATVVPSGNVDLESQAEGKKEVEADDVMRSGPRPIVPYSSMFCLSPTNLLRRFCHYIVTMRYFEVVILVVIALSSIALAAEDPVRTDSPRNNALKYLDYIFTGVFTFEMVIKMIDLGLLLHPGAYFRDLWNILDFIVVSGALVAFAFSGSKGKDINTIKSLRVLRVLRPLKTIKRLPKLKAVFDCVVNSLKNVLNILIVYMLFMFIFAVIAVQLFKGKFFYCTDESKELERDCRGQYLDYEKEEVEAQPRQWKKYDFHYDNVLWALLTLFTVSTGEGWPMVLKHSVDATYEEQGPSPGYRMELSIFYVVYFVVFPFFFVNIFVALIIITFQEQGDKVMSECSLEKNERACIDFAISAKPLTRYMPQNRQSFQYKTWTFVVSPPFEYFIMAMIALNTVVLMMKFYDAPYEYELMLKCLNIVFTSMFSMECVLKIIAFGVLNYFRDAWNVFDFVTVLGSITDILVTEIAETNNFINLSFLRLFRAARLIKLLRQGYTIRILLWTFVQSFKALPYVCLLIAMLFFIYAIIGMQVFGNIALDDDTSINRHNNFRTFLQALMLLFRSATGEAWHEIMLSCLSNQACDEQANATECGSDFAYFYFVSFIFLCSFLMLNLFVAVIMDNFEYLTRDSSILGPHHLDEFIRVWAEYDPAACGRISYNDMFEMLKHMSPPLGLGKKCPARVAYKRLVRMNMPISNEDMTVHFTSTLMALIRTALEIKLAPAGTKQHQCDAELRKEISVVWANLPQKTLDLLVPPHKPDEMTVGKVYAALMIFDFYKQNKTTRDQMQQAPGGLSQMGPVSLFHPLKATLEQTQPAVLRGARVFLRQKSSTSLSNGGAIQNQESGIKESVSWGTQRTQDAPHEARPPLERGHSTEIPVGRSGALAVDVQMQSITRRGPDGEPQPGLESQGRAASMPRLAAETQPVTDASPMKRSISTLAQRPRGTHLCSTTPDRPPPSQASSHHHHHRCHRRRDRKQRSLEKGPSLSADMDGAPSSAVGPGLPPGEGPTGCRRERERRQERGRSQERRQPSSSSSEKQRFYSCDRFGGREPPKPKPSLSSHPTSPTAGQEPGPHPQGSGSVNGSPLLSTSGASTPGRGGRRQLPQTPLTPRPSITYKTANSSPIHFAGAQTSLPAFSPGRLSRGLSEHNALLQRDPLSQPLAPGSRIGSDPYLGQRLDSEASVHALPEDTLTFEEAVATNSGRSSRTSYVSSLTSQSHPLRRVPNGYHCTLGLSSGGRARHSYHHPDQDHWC
T2 sequence (Q02410 whole entry): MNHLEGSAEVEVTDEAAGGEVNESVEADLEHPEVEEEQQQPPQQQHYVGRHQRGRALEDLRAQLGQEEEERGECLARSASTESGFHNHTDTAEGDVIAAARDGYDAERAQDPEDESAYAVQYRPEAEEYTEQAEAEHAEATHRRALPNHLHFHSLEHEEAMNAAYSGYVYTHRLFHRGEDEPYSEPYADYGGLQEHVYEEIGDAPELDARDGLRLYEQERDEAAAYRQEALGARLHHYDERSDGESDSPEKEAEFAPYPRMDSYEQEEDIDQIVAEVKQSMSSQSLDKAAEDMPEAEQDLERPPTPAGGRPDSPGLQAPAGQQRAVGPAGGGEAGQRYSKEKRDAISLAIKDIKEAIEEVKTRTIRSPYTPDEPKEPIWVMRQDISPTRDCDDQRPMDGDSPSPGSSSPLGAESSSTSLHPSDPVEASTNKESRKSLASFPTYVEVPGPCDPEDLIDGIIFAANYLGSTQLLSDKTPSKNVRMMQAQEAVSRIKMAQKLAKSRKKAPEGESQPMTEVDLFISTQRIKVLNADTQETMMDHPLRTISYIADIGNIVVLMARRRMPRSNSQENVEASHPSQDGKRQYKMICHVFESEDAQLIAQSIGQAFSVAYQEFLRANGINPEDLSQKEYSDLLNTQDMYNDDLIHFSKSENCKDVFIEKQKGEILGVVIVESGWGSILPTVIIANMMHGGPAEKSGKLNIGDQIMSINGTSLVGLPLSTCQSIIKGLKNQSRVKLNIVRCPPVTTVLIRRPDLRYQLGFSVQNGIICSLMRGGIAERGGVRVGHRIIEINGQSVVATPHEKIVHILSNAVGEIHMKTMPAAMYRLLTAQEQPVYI

For the compound `CCc1nccn1C(=O)c1cnn2c(C(F)F)cc(-c3ccccc3)nc12`, the IC50 on Prothrombin was 0.916 µM (active).

With `Cc1ccc(Nc2cnn(C34CC5CC(CC(CC(=O)O)(C5)C3)C4)c(=O)c2Cl)cc1C`, the IC50 is on record as > 55.7 µM (not active) in [1] and 18.8 µM (not active) on Insulin-degrading enzyme.

Consider `Cc1ccc(/C=C/C2=Cc3c(sc(NC(=O)CSc4n[nH]c(N)n4)c3C#N)C(C)(C)C2)o1`, for which the values for the EC50 in experiment [2] and in experiment [3] were 7.52 µM (active) and 7.17 µM (active), respectively.

Consider `Cc1cccc(C)c1NC(=S)N/N=C/c1c(Cl)cccc1Cl`, for which the IC50 against Prothrombin is given as > 50 µM (not active).

In the case of `CC(=O)Oc1ccc(N2C(=O)C3C4C=CC(CC4)C3C2=O)cc1` (configuration not stated), the IC50 in experiment [4] and in experiment [5] was > 56.8 µM (inactive) in each case.

As to `COc1nc(-c2ccccc2)nc2ccccc12`, the EC50 at Streptokinase A was 75.4 µM (active); in the experiment with Streptococcus, > 500 µM (not active).

For the compound `CCOC(=O)C1CCN(Cc2ccc(O)c3ncccc23)CC1`, the EC50 in [6] was > 60 µM (not active); in experiment [7] it was > 38 µM (not active); in [8], 22.2 µM (active); in experiment [10], 3.26 µM (active). Besides, in the experiment with INS1, the AC50 was 3.76 µM (active). Besides, the IC50 in experiment [9] is > 50 µM (not active); at Nonstructural protein 1 it was 5.25 µM (active).

For the origin of these results see ChEMBL document CHEMBL1201862, “PubChem BioAssay data set” (2004).
